# Results as given in patent US20040009485A1, “Cellular arrays for the identification of altered gene expression” (priority 2002, published 2004).
# Test system: LuxArray 1.04 E. coli strains (luxCDABE gene fusions)
# Assay: LuxArray 1.04 limonene stress of the reporter array in liquid culture
# Type: cell-based
# Details: for number of gene fusions upregulated by 2 fold or more / upregulation of gene fusion: 80% saturated limonene in LB; for number of gene fusions upregulated by 2 fold or more: LuxArray 1.04 (849 fusions)
# Procedure: Microplates from −80° C. containing the LuxArray 1.04 E. coli strains were thawed and used to inoculate 100 μl LB medium supplemented with 100 μg/ml ampicillin in Costar#3595 flat bottomed 96-well microplates. Following overnight growth at 37° C., the plates were visually examined and any wells with little or no turbidity were recorded. Then these cultures were diluted by transfer of 15 μl to 135 μl LB medium in Costar #3595, flat bottom 96-well microplates and were moderately swirl shaken on an IKA Schuttler MTS 4 shaker at setting 400 for two hrs at 37° C. in a humidified box. Twenty μl of each these actively growing cultures were transferred to the corresponding well in sets of three microplates, one containing 80 μl of LB medium, another containing 80 μl of LB medium saturated with limonene at room temperature, and the third containing 40 μl of LB medium saturated with limonene and 40 μl of LB medium. An initial (zero time) reading was taken using an MLX microplate luminometer (Dynex) pre-warmed to 37° C. Then the plates were placed at 37° C. without shaking. Additional bioluminescent measurements were taken at 45, 90, and 135 minutes. To limit the number of microplates handled each day, LuxArray 1.04 microplates 1 to 5, microplates 6 to 10, microplates 11 to 15, and microplates […] were used on each of four different days.
# The data were normalized to correct for growth-inhibition caused by limonene on the basis of each individual day that data was collected. The bioluminescence (RLU) of each individual culture for each day of experimentation under each of the three conditions, were added to determine the daily array total RLU. These were used to find a daily normalization factor (DNF) as follows:
# DNF=Daily total array signal(time zero, LB control)/Daily total array signal(time x, condition y)
# Each measurement from the corresponding day, time point, and condition was multiplied by DNF to yield a normalized signal. The data from wells that were scored to have little or no growth were not used in further analysis. The normalized data were analyzed with GeneSpring (Silicon Genetics) software, which averaged the signal from each of the duplicate cultures for each reporter gene fusion.
# Thus, patterns of gene expression from the 80% saturated limonene in LB medium were further examined. […] These lists were examined and gene fusions with very low normalized RLU values (<0.012 RLU) at all conditions were eliminated. […] The designation of “>2X” is given for upregulation while “*” is listed if the expression was less than 2 fold increased. At 45 minutes, the expression of fourteen gene fusions was increased; none of these was increased 3 fold or higher. At 90 minutes, 37 gene fusions were induced; these included all but one of the gene fusions observed at 45 minutes. […] These were fusions of the luxCDABE reporter to the promoter regions of uhpT (3.8×), nirB (3.7×) and narK (3.6×). At 135 minutes, 39 gene fusions were induced, which included 13 fusions not observed at 45 or 90 minutes.
smiles,measurement,setting,value
C=C(C)[C@H]1CC=C(C)CC1 [limonene],upregulation of gene expression overall,40% saturated limonene in LB medium,little to no upregulation of gene expression
same,number of gene fusions upregulated by 2 fold or more,45 minutes,fourteen
same,number of gene fusions upregulated by 2 fold or more,90 minutes,37 gene fusions
same,number of gene fusions upregulated by 2 fold or more,135 minutes,39 gene fusions
same,upregulation of gene fusion,"b0005 fusion, 45 minutes",* (“*” is listed if the expression was less than 2 fold increased)
same,upregulation of gene fusion,"b0005 fusion, 90 minutes",* (“*” is listed if the expression was less than 2 fold increased)
same,upregulation of gene fusion,"b0005 fusion, 135 minutes",>2X (The designation of “>2X” is given for upregulation)
same,upregulation of gene fusion,"b0123 (yacK) fusion, 45 minutes",* (“*” is listed if the expression was less than 2 fold increased)
same,upregulation of gene fusion,"b0314 (betT) fusion, 45 minutes",* (“*” is listed if the expression was less than 2 fold increased)
same,upregulation of gene fusion,"b0314 (betT) fusion, 90 minutes",>2X (The designation of “>2X” is given for upregulation)
same,upregulation of gene fusion,"b0314 (betT) fusion, 135 minutes",>2X (The designation of “>2X” is given for upregulation)
same,upregulation of gene fusion,"b0417 fusion, 45 minutes",* (“*” is listed if the expression was less than 2 fold increased)
same,upregulation of gene fusion,"b0417 fusion, 90 minutes",>2X (The designation of “>2X” is given for upregulation)
same,upregulation of gene fusion,"b0417 fusion, 135 minutes",>2X (The designation of “>2X” is given for upregulation)
same,upregulation of gene fusion,"b0422 (xseB) fusion, 45 minutes",* (“*” is listed if the expression was less than 2 fold increased)
same,upregulation of gene fusion,"b0422 (xseB) fusion, 90 minutes",>2X (The designation of “>2X” is given for upregulation)
same,upregulation of gene fusion,"b0422 (xseB) fusion, 135 minutes",* (“*” is listed if the expression was less than 2 fold increased)
same,upregulation of gene fusion,"b0572 fusion, 45 minutes",* (“*” is listed if the expression was less than 2 fold increased)
same,upregulation of gene fusion,"b0572 fusion, 90 minutes",>2X (The designation of “>2X” is given for upregulation)
same,upregulation of gene fusion,"b0572 fusion, 135 minutes",>2X (The designation of “>2X” is given for upregulation)
same,upregulation of gene fusion,"b0593 (entC) fusion, 45 minutes",* (“*” is listed if the expression was less than 2 fold increased)
same,upregulation of gene fusion,"b0593 (entC) fusion, 90 minutes",>2X (The designation of “>2X” is given for upregulation)
same,upregulation of gene fusion,"b0593 (entC) fusion, 135 minutes",>2X (The designation of “>2X” is given for upregulation)
same,upregulation of gene fusion,"b0839 (dacC) fusion, 45 minutes",* (“*” is listed if the expression was less than 2 fold increased)
same,upregulation of gene fusion,"b0839 (dacC) fusion, 90 minutes",>2X (The designation of “>2X” is given for upregulation)
same,upregulation of gene fusion,"b0839 (dacC) fusion, 135 minutes",>2X (The designation of “>2X” is given for upregulation)
same,upregulation of gene fusion,"b1188 (ycgB) fusion, 45 minutes",* (“*” is listed if the expression was less than 2 fold increased)
same,upregulation of gene fusion,"b1188 (ycgB) fusion, 90 minutes",>2X (The designation of “>2X” is given for upregulation)
same,upregulation of gene fusion,"b1188 (ycgB) fusion, 135 minutes",* (“*” is listed if the expression was less than 2 fold increased)
same,upregulation of gene fusion,"b1223 (narK) fusion, 45 minutes",* (“*” is listed if the expression was less than 2 fold increased)
same,upregulation of gene fusion,"b1223 (narK) fusion, 90 minutes",>2X (The designation of “>2X” is given for upregulation)
same,upregulation of gene fusion,"b1223 (narK) fusion, 135 minutes",>2X (The designation of “>2X” is given for upregulation)
same,upregulation of gene fusion,"b1676 (pykF) fusion, 45 minutes",>2X (The designation of “>2X” is given for upregulation)
same,upregulation of gene fusion,"b1676 (pykF) fusion, 90 minutes",>2X (The designation of “>2X” is given for upregulation)
same,upregulation of gene fusion,"b1676 (pykF) fusion, 135 minutes",>2X (The designation of “>2X” is given for upregulation)
same,upregulation of gene fusion,"b1872 (bisZ) fusion, 45 minutes",* (“*” is listed if the expression was less than 2 fold increased)
same,upregulation of gene fusion,"b1872 (bisZ) fusion, 90 minutes",>2X (The designation of “>2X” is given for upregulation)
same,upregulation of gene fusion,"b1872 (bisZ) fusion, 135 minutes",>2X (The designation of “>2X” is given for upregulation)
same,upregulation of gene fusion,"b1993 (cobU) fusion, 45 minutes",>2X (The designation of “>2X” is given for upregulation)
same,upregulation of gene fusion,"b1993 (cobU) fusion, 90 minutes",>2X (The designation of “>2X” is given for upregulation)
same,upregulation of gene fusion,"b1993 (cobU) fusion, 135 minutes",>2X (The designation of “>2X” is given for upregulation)
same,upregulation of gene fusion,"b2081 fusion, 45 minutes",>2X (The designation of “>2X” is given for upregulation)
same,upregulation of gene fusion,"b2081 fusion, 90 minutes",>2X (The designation of “>2X” is given for upregulation)
same,upregulation of gene fusion,"b2081 fusion, 135 minutes",* (“*” is listed if the expression was less than 2 fold increased)
same,upregulation of gene fusion,"b2237 (inaA) fusion, 45 minutes",* (“*” is listed if the expression was less than 2 fold increased)
same,upregulation of gene fusion,"b2237 (inaA) fusion, 90 minutes",>2X (The designation of “>2X” is given for upregulation)
same,upregulation of gene fusion,"b2237 (inaA) fusion, 135 minutes",>2X (The designation of “>2X” is given for upregulation)
same,upregulation of gene fusion,"b2322 fusion, 45 minutes",* (“*” is listed if the expression was less than 2 fold increased)
same,upregulation of gene fusion,"b2322 fusion, 90 minutes",>2X (The designation of “>2X” is given for upregulation)
same,upregulation of gene fusion,"b2322 fusion, 135 minutes",>2X (The designation of “>2X” is given for upregulation)
same,upregulation of gene fusion,"b2367 (emrY) fusion, 45 minutes",* (“*” is listed if the expression was less than 2 fold increased)
same,upregulation of gene fusion,"b2367 (emrY) fusion, 90 minutes",>2X (The designation of “>2X” is given for upregulation)
same,upregulation of gene fusion,"b2367 (emrY) fusion, 135 minutes",* (“*” is listed if the expression was less than 2 fold increased)
same,upregulation of gene fusion,"b2451 fusion, 45 minutes",* (“*” is listed if the expression was less than 2 fold increased)
same,upregulation of gene fusion,"b2451 fusion, 90 minutes",>2X (The designation of “>2X” is given for upregulation)
